Measurements taken from PubChem BioAssay AID2060618 (Molecular Pharmacology Branch, DTP, NCI, 2025).
Values joined by “and” are separate entries in the source; they are usually repeats but may differ in a detail not shown here. Equal values may be shown once. Each block holds one molecule with its values, some of them ahead of it.

System: 454973-116-R2-J3-PDC spheroids, percent test/control viability
Test: Anticancer human tumor 454973-116-R2-J3-PDC patient-derived pancreatic carcinoma cell line growth inhibition [CLK]
Details: spheroids with HUVEC and MSC; for viability, T/C: stronger effect = lower value; for IC50: curve of compound
Source text: A high-throughput screen of multi-cell type tumor spheroids was designed to identify active combinations of […] and targeted small molecules. Complex spheroids include a stromal component modeled by human endothelial cells (HUVEC) and fibroblasts modeled by human mesenchymal stem cells (MSCs). The concentration ranges selected for each drug and investigational agent were based upon clinically achievable concentrations if the clinical Cmax of the agent was known.
Compounds. The drugs and investigational agents: cirtuvivint (SM08502; NSC835563), CC-671 (NSC850746), vemurafenib (NSC761431), tapotoclax (NSC804041), sotorasib (NSC818433), adagrasib (NSC831453), MRTX-1133 (NSC836407), BAY2416964 (NSC825713), copanlisib (NSC816437), inavolisib (NSC800729), abemaciclib (NSC768073), osimertinib (NSC779217), entinostat (NSC756642), eltanexor (KPT-8602, NSC794443), venetoclax (NSC766270), ceralasertib (NSC777638), bortezomib (NSC756655), olaparib (NSC753686), talazoparib (NSC767125), alisertib (NSC759677), peposertib (NSC802822), gemcitabine (NSC613327), 5-fluorouracil (NSC19893), SN-38 (NSC673596), oxaliplatin (NSC266046), paclitaxel (NSC125973), and doxorubicin (NSC123127), were obtained from the National Cancer Institute (NCI) Developmental Therapeutics Program Chemical Repository. The FDA-approved anticancer drug set is available from the Developmental Therapeutics Program at https://dtp.cancer.gov/organization/dscb/obtaining/available plates.htm. […] The stock solutions were prepared in dimethyl sulfoxide (DMSO, Sigma-Aldrich, St. Louis, MO, cat. D2650), except for the platinum complexes which were prepared in saline (Quality Biological, Gaithersburg, MD, cat. 114-055-101), at 800-fold the tested concentration and stored at -70 degrees C prior to their use. All drugs and investigational agents were tested over a range starting from a high concentration at or near the clinical Cmax and decreasing in half-log increments. If the clinical Cmax for an agent had not been determined, the highest concentration tested was 10 microM.
Cell Culture. All cells were maintained in an incubator at 37 degrees C and 5% CO2 with 95% humidity. The PDC lines were cultured according to standard operating procedures established by the NCI PDMR. Briefly, all PDCs were thawed and cultured in Matrigel-coated flasks prepared with a working solution of 1X Ham's F-12 nutrient mix, without supplementation (Invitrogen, Waltham, MA, cat. 11765054), 100 U/mL penicillin-streptomycin (Invitrogen, cat. 15140122), and 2.5% Matrigel (Corning Inc., Corning, NY, cat. 354248) for the first three passages. The 947758-054-R-J2-PDC line was cultured in 6B/Colon 1A media, which includes advanced DMEM/F-12 (Thermo Fisher Scientific, cat. 12634028), 10 mM HEPES (Thermo Fisher Scientific, cat. 15630080), 1X GlutaMAX supplement (Thermo Fisher Scientific, cat. 35050061), 0.1 mg/mL primocin (InvivoGen, cat. ant-pm-2), 10% defined fetal bovine serum, heat inactivated (HyClone Laboratories Inc., cat. SH30070.03HI), 1.25 mM N-Acetyl-L-cysteine (Sigma-Aldrich, cat. A9165), 10 mM nicotinamide (Sigma-Aldrich, cat. N0636), 1X B-27 supplement (Thermo Fisher Scientific, cat. 17504044), 1X N-2 supplement (Thermo Fisher Scientific, cat. 17502048), and 10 microM Y-27632 dihydrochloride (Tocris Bioscience, cat. 1254). The 876862-298-R-J1-PDC was cultured in 6E media, which includes all 6B/Colon 1A media components plus 50% L-WRN conditioned media (ATCC, cat. CRL-3276), 50 ng/mL recombinant human EGF recombinant protein (hEGF; Thermo Fisher Scientific, cat. PHG0311), 10 ng/mL recombinant human fibroblast growth factor 10 (hGFG-10; PeproTech, cat. 100-26), 1 ng/mL recombinant human fibroblast growth factor 2 (hFGF-2; PeproTech, cat. 100-18B), and 1 µM prostaglandin E2 (PGE2; Tocris, cat. 2296). The 227483-062-R1-J1-PDC line was cultured in Panc media, containing all 6E components except hFGF-2, with the addition of 500 nM SB-431542 (Selleckchem, cat. S1067) and 10 nM gastrin (Tocris, cat. 3006). […]
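Also: spheroids exposed to compounds for 7 days before readout.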

Compound: COc1cccc2c1C(=O)c1c(O)c3c(c(O)c1C2=O)CC(O)(C(=O)CO)CC3OC1CC(N)C(O)C(C)O1 (stereo not given)
- viability, T/C (compound 0.0316 µM): 58.7% and 49.7%
- viability, T/C (compound 0.1 µM): 23% and 19.8%
- viability, T/C (compound 0.316 µM): 21.2% and 19.8%
- viability, T/C (compound 1 µM): 6.76% and 3.88%
- viability, T/C (compound 3.16 µM): 0.39% and 1.8%
- viability, T/C (compound 10 µM): 2.07% and 3.53%
- IC50: 42.3 nM and < 31.6 nM

Compound: O=c1[nH]cc(F)c(=O)[nH]1
- viability, T/C (compound 0.0316 µM): 115% and 108%
- viability, T/C (compound 0.1 µM): 98.1% and 101%
- viability, T/C (compound 0.316 µM): 95.8% and 103%
- viability, T/C (compound 1 µM): 64.2% and 43.4%
- viability, T/C (compound 3.16 µM): 30.3% and 31.5%
- viability, T/C (compound 10 µM): 35.5% and 36.6%
- IC50: 1700 nM and 881 nM

The next lines start with results.

- IC50: < 31.6 nM
Compound: CC(=O)O[C@H]1C(=O)[C@@]2(C)[C@H]([C@H](OC(=O)c3ccccc3)[C@]3(O)C[C@H](OC(=O)[C@H](O)[C@@H](NC(=O)c4ccccc4)c4ccccc4)C(C)=C1C3(C)C)[C@]1(OC(C)=O)CO[C@@H]1C[C@@H]2O
- viability, T/C (compound 0.0316 µM): 5.98% and 7.51%
- viability, T/C (compound 0.1 µM): 6.42% and 5.84%
- viability, T/C (compound 0.316 µM): 4.95% and 6.85%
- viability, T/C (compound 1 µM): 5.57% and 6.35%
- viability, T/C (compound 3.16 µM): 7.38% and 11.4%
- viability, T/C (compound 10 µM): 16% and 15.4%

- IC50: > 10000 nM
Compound: COc1ccc([C@@H](O)c2cc(-c3ncnc4cc(N5CCOCC5)ccc34)c(F)cc2Cl)nn1
- viability, T/C (compound 0.0316 µM): 105% and 114%
- viability, T/C (compound 0.1 µM): 108% and 102%
- viability, T/C (compound 0.316 µM): 95.4% and 102%
- viability, T/C (compound 1 µM): 92% and 89.2%
- viability, T/C (compound 3.16 µM): 82.7% and 77.8%
- viability, T/C (compound 10 µM): 54.3% and 51%

- IC50: < 31.6 nM
Compound: Nc1ccn(C2OC(CO)C(O)C2(F)F)c(=O)n1 (stereo not given)
- viability, T/C (compound 0.0316 µM): 11% and 7.61%
- viability, T/C (compound 0.1 µM): 8.58% and 9.53%
- viability, T/C (compound 0.316 µM): 8.12% and 7.99%
- viability, T/C (compound 1 µM): 10.4% and 8.26%
- viability, T/C (compound 3.16 µM): 9.96% and 7.45%
- viability, T/C (compound 10 µM): 9.46% and 9.19%
